Experimental data reported in patent US20230090439A1, “PHARMACEUTICAL COMPOSITION FOR CONTROLLING PARASITES ON NON-HUMAN ORGANISMS” (priority 2020, published 2023).

Assay: Solubility experiments (saturation solubility in solvents, HPLC-UV of supernatant)
Type: physicochemical
Settings: for Solubility in the solvent mixture of the composition according to the invention (in words): isopropanol/propylene carbonate 65:35, room temperature
Excerpt: Dissolution experiments for active ingredients I-1, I-2, I-3 and I-4 in solvents for a pharmaceutical composition according to the invention are presented below. For biological effect, the active ingredient should be incorporated at a certain dose or amount in the formulation, in the ideal case it should be a solution in the formulation such that the active ingredient is therefore dissolved in the solvent. A certain minimum solubility is required for the solvent since the application volume is limited.
In this case, 10 g of the appropriate solvent or solvent mixture were initially charged and as much active ingredient was added until the solution is saturated. Isopropanol (IPA) and propylene carbonate (PPC) were used as solvents. The samples were stirred for 3 days. Should the active ingredient become fully dissolved, active ingredient was again added. Subsequently, the samples were stored for a further 4 days at the relevant temperature and centrifuged in order to remove the undissolved particles. The supernatants were analyzed in each case for active ingredient content by HPLC-UV.
Furthermore, solubility experiments with three further active ingredients from the class of fluorinated heteroarylamides in different solvents were carried out. The solubility experiments were carried out analogously to the experiments described above, however only at room temperature and the solvent mixture isopropanol/propylene carbonate 65:35% [m/m] was selected.
Experiments with solvent systems were also carried out in which the first solvent comprised two alcohols.

[1] = Isopropanol, room temperature (Table 2)
[2] = Isopropanol/propylene carbonate 65/35, room temperature (Table 2)
[3] = Propylene carbonate, room temperature (Table 2)

In the case of `CN(C(=O)c1cc(-c2cnn(-c3c(Cl)cc(C(F)(C(F)(F)F)C(F)(F)F)cc3Cl)c2)cnc1Cl)C1CC1` [I-1, 2-chloro-N-cyclopropyl-5-[1-[2,6-dichloro-4-[1,2,2,2-tetrafluoro-1-(trifluoromethyl)-ethyl]phenyl]pyrazol-4-yl]-N-methylpyridine-3-carboxamide], the Saturation solubility (Ethanol (Table 3)) is reported as 2.76 % [ w/w], the Saturation solubility (Ethanol/glycerol carbonate 65:35 (Table 3)) is reported as 6.48 % [ w/w] and the Saturation solubility (Ethanol/propylene carbonate 65:35 (Table 3)) is reported as 9.45 % [ w/w]. For the same compound, the Solubility (Ethanol/propylene carbonate/glycerol carbonate 65:17.5:17.5) was over 5 % [w/w], the Saturation solubility (Glycerol carbonate (Table 3)) was 0.15 % [ w/w] and the “Saturation concentration of the solution” value (IPA/PPC 25/75 23° C.) was 7.58 %[w/w]. The “Saturation concentration of the solution” value (IPA/PPC 35/65 23° C.) was 8.79 %[w/w], the “Saturation concentration of the solution” value (IPA/PPC 50/50 23° C.) was 9.26 %[w/w] and the “Saturation concentration of the solution” value (IPA/PPC 60/40 23° C.) was 8.60 %[w/w]. The “Saturation concentration of the solution” value (IPA/PPC 65/35 5° C.) was 6.32 %[w/w], the “Saturation concentration of the solution” value (IPA/PPC 65/35 23° C.) was 8.31 %[w/w] and the “Saturation concentration of the solution” value (IPA/PPC 70/30 23° C.) was 7.49 %[w/w]. For the same compound, the “Saturation concentration of the solution” value (IPA/PPC 75/25 23° C.) was 6.70 %[w/w], the “Saturation concentration of the solution” value (IPA/PPC 80/20 23° C.) was 5.90 %[w/w] and the “Saturation concentration of the solution” value (IPA/PPC 90/10 23° C.) was 3.74 %[w/w]. The “Saturation concentration of the solution” value (Isopropanol 5° C.) was 0.98 %[w/w], the “Saturation concentration of the solution” value (Isopropanol 23° C.) was 1.56 %[w/w] and the Saturation solubility (Isopropanol (Table 3)) was 1.56 % [ w/w]. For the same compound, the Solubility (Isopropanol/ethanol/glycerol carbonate 32.5:32.5:35) was over 5 % [w/w], the Solubility (Isopropanol/ethanol/propylene carbonate 32.5:32.5:35) was over 5 % [w/w] and the Saturation solubility (Isopropanol/glycerol carbonate 65:35 (Table 3)) was 5.98 % [ w/w]. For the same compound, the Solubility (Isopropanol/propylene carbonate/glycerol carbonate 65:17.5:17.5) was over 5 % [w/w], the “Saturation concentration of the solution” value (Propylene carbonate 5° C.) was 1.80 %[w/w] and the “Saturation concentration of the solution” value (Propylene carbonate 23° C.) was 2.43 %[w/w]. The Saturation solubility (Propylene carbonate (Table 3)) was 2.43 % [ w/w], the “Solubility in the mixture of isopropanol and propylene carbonate compared to the pure solvents (in words)” value (mixture of isopropanol and propylene carbonate vs pure solvents) was “significant solubility increase” and the “Solubility in the solvent systems of Table 4 (in words)” value (three-component alcohol/carbonate solvent systems of Table 4) was “good solubilities”.
Work on `O=C(NC1CC1)c1cc(-c2cnn(-c3c(Cl)cc(C(F)(C(F)(F)F)C(F)(F)F)cc3C(F)(F)F)c2)cnc1Cl` [I-3, 2-chloro-5-[1-[2-chloro-4-[1,2,2,2-tetrafluoro-1-(trifluoromethyl)ethyl]-6-(trifluoromethyl)phenyl]-1H-pyrazol-4-yl]-N-cyclopropyl-3-pyridinecarboxamide] yielded a Saturation solubility [1] of 4.18 % [w/w], a Saturation solubility [2] of 17.57 % [w/w] and a Saturation solubility [3] of 4.89 % [w/w]. The “Solubility in the solvent mixture of the composition according to the invention (in words)” value (“Solubility in the solvent mixture” below) was “very good solubilities”.
With `O=C(NC1CC1)c1cc(-c2cnn(-c3c(Br)cc(C(F)(C(F)(F)F)C(F)(F)F)cc3OC(F)(F)F)c2)cnc1Cl` [I-4] the Saturation solubility [1] was 13.42 % [w/w], the Saturation solubility [2] was 29.38 % [w/w] and the Saturation solubility [3] was 11.76 % [w/w]. For the same compound, the “Solubility in the solvent mixture” value was “very good solubilities”.
For `O=C(NC1CC1)c1cc(-c2cnn(-c3c(Cl)cc(C(F)(C(F)(F)F)C(F)(F)F)cc3OC(F)(F)F)c2)cnc1Cl` [I-2], the Saturation solubility [1] was 6.99 % [w/w], the Saturation solubility [2] was 24.20 % [w/w] and the Saturation solubility [3] was 5.34 % [w/w]. The “Solubility in the solvent mixture” value was “very good solubilities”.
